From PubChem BioAssay AID256 (DTP/NCI, 2004)
Where “and” joins values, the source holds several entries; their conditions need not be identical. Equal values may be shown once. Toxic doses and inconclusive results are not listed. How the source made its calls: active means survival T/C of 150% or more; inactive means T/C below 125% in these data.

System: CD2F1 mice, L1210 leukemia ip, survival T/C
Test: NCI In Vivo Anticancer Drug Screen. Data for tumor model L1210 Leukemia (intraperitoneal) in CD2F1 (CDF1) mice
Conditions: higher = longer survival
Method in brief: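 Ratio T/C, where T is the treated-group value and C the vehicle-dosed control value, from mice implanted with a transplantable tumor.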

[1] = endpoint: mean survival time, dose: 100.0 mg/kg/injection, schedule: Q01DX001 (ip), vehicle: saline with Tween-80
[2] = endpoint: mean survival time, dose: 200.0 mg/kg/injection, schedule: Q01DX001 (ip), vehicle: saline with Tween-80
[3] = endpoint: mean survival time, dose: 400.0 mg/kg/injection, schedule: Q01DX001 (ip), vehicle: saline with Tween-80
[4] = endpoint: mean survival time, dose: 12.5 mg/kg/injection, schedule: Q01DX009 (ip), vehicle: saline with Tween-80
[5] = endpoint: mean survival time, dose: 25.0 mg/kg/injection, schedule: Q01DX009 (ip), vehicle: saline with Tween-80
[6] = endpoint: mean survival time, dose: 50.0 mg/kg/injection, schedule: Q01DX009 (ip), vehicle: saline with Tween-80
[7] = endpoint: mean survival time, dose: 100.0 mg/kg/injection, schedule: Q01DX009 (ip), vehicle: saline with Tween-80
[8] = endpoint: mean survival time, dose: 200.0 mg/kg/injection, schedule: Q01DX009 (ip), vehicle: saline with Tween-80
[9] = endpoint: mean survival time, dose: 400.0 mg/kg/injection, schedule: Q01DX009 (ip), vehicle: saline with Tween-80
[10] = endpoint: mean survival time, dose: 100.0 mg/kg/injection, schedule: Q04DX002 (ip), vehicle: saline with Tween-80
[11] = endpoint: mean survival time, dose: 200.0 mg/kg/injection, schedule: Q04DX002 (ip), vehicle: saline with Tween-80
[12] = endpoint: mean survival time, dose: 400.0 mg/kg/injection, schedule: Q04DX002 (ip), vehicle: saline with Tween-80
[13] = endpoint: mean survival time, dose: 100.0 mg/kg/injection, schedule: Q04DX003 (ip), vehicle: saline with Tween-80
[14] = endpoint: mean survival time, dose: 200.0 mg/kg/injection, schedule: Q04DX003 (ip), vehicle: saline with Tween-80
[15] = endpoint: mean survival time, dose: 400.0 mg/kg/injection, schedule: Q04DX003 (ip), vehicle: saline with Tween-80

Measured: T/C

O.O.[Cl][Pt+2][Cl].[NH-]CC[NH-]
inactive: endpoint: median survival time, dose: 3.12 mg/kg/injection, schedule: Q04DX003 (ip), vehicle: distilled water + Tween-80 101 % of control | endpoint: median survival time, dose: 6.25 mg/kg/injection, schedule: Q04DX003 (ip), vehicle: distilled water + Tween-80 102 % of control | endpoint: median survival time, dose: 12.5 mg/kg/injection, schedule: Q04DX003 (ip), vehicle: distilled water + Tween-80 111 % of control | endpoint: median survival time, dose: 25.0 mg/kg/injection, schedule: Q04DX003 (ip), vehicle: distilled water + Tween-80 108 % of control | endpoint: median survival time, dose: 50.0 mg/kg/injection, schedule: Q04DX003 (ip), vehicle: distilled water + Tween-80 105 % of control

Cc1ncc(CO)c(C2NOCc3nscc32)c1O (stereo not drawn)
inactive: endpoint: mean survival time, dose: 18.0 mg/kg/injection, schedule: Q01DX009 (ip), vehicle: Klucel (hydroxypropylcellulose) (HPC) 90 % of control | endpoint: mean survival time, dose: 28.0 mg/kg/injection, schedule: Q01DX009 (ip), vehicle: Klucel (hydroxypropylcellulose) (HPC) 89 % of control

c1ccc(C(c2ccccc2)[n+]2ccccc2)cc1
inactive: endpoint: mean survival time, dose: 5.0 mg/kg/injection, schedule: Q01DX009 (ip), vehicle: saline 98 % of control | endpoint: mean survival time, dose: 5.0 mg/kg/injection, schedule: Q04DX003 (ip), vehicle: saline 104 % of control | endpoint: mean survival time, dose: 10.0 mg/kg/injection, schedule: Q01DX009 (ip), vehicle: saline 102 % of control | endpoint: mean survival time, dose: 10.0 mg/kg/injection, schedule: Q04DX003 (ip), vehicle: saline 103 % of control | endpoint: mean survival time, dose: 20.0 mg/kg/injection, schedule: Q04DX003 (ip), vehicle: saline 109 % of control

CCOc1ccc(-n2c(O)c(N=Nc3ccccc3OC)c(=O)n(-c3ccc(OC)cc3)c2=S)cc1
inactive: [1] 101 % of control | [2] 95 % of control | [3] 94 % of control

CC(=O)OCC1(C)NC(=O)c2ccccc2O1 (stereo not drawn)
inactive: [4] 93 % of control and 112 % of control | [5] 93 % of control and 101 % of control | [6] 98 % of control and 103 % of control | [7] 118 % of control and 100 % of control | [8] 95 % of control and 106 % of control | [9] 115 % of control

C[n+]1cccc(CCc2ccc[n+](C)c2)c1
inactive: endpoint: mean survival time, dose: 50.0 mg/kg/injection, schedule: Q01DX009 (ip), vehicle: saline 92 % of control | endpoint: mean survival time, dose: 100.0 mg/kg/injection, schedule: Q01DX009 (ip), vehicle: saline 104 % of control

CC(C)CN1C(=O)C2C3CCC(O3)C2C1=O (stereo not drawn)
inactive: [10] 95 % of control | [11] 91 % of control | [12] 102 % of control

CC(=O)NCc1cccc([N+](=O)[O-])c1
inactive: endpoint: mean survival time, dose: 25.0 mg/kg/injection, schedule: Q01DX005 (ip), vehicle: suspension in saline 97 % of control | endpoint: mean survival time, dose: 50.0 mg/kg/injection, schedule: Q01DX005 (ip), vehicle: suspension in saline 106 % of control | endpoint: mean survival time, dose: 100.0 mg/kg/injection, schedule: Q01DX005 (ip), vehicle: suspension in saline 105 % of control | endpoint: mean survival time, dose: 200.0 mg/kg/injection, schedule: Q01DX005 (ip), vehicle: suspension in saline 95 % of control | endpoint: mean survival time, dose: 400.0 mg/kg/injection, schedule: Q01DX005 (ip), vehicle: suspension in saline 95 % of control

CC(=O)CC(=O)C(F)(F)F.CC(=O)CC(=O)C(F)(F)F.[O]=[V]
inactive: endpoint: mean survival time, dose: 3.8 mg/kg/injection, schedule: Q01DX009 (ip), vehicle: saline with Tween-80 95 % of control | endpoint: mean survival time, dose: 7.5 mg/kg/injection, schedule: Q01DX009 (ip), vehicle: saline with Tween-80 93 % of control | endpoint: mean survival time, dose: 15.0 mg/kg/injection, schedule: Q01DX009 (ip), vehicle: saline with Tween-80 92 % of control

C=CCN(CC=C)C(=O)Nc1ccc(C)c(C)c1
inactive: [6] 96 % of control | [7] 92 % of control | [8] 96 % of control

CCC(CNCCC(=O)O)(C(=O)O)C(=O)O
inactive: [10] 98 % of control | [11] 98 % of control | [12] 90 % of control

Cc1cc([N+](=O)[O-])c(S(N)(=O)=O)c([N+](=O)[O-])c1
inactive: endpoint: mean survival time, dose: 25.0 mg/kg/injection, schedule: Q01DX009 (ip), vehicle: Klucel (hydroxypropylcellulose) (HPC) 98 % of control | endpoint: mean survival time, dose: 50.0 mg/kg/injection, schedule: Q01DX009 (ip), vehicle: Klucel (hydroxypropylcellulose) (HPC) 95 % of control

Nc1ncnc2nc[nH]c12
inactive: endpoint: median survival time, dose: 70.0 mg/kg/injection, schedule: Q01DX009 (ip), vehicle: acid diluted with saline 98 % of control | endpoint: median survival time, dose: 70.0 mg/kg/injection, schedule: Q01DX009 (ip), vehicle: other 109 % of control | endpoint: median survival time, dose: 80.0 mg/kg/injection, schedule: Q01DX009 (ip), vehicle: acid diluted with saline 103 % of control | endpoint: median survival time, dose: 80.0 mg/kg/injection, schedule: Q01DX009 (ip), vehicle: other 112 % of control | endpoint: median survival time, dose: 90.0 mg/kg/injection, schedule: Q01DX009 (ip), vehicle: acid diluted with saline 101 % of control | endpoint: median survival time, dose: 90.0 mg/kg/injection, schedule: Q01DX009 (ip), vehicle: other 106 % of control

NCC(=O)Nc1ccc(O)cc1
inactive: endpoint: mean survival time, dose: 180.0 mg/kg/injection, schedule: Q04DX003 (ip), vehicle: saline 104 % of control | endpoint: mean survival time, dose: 405.0 mg/kg/injection, schedule: Q04DX003 (ip), vehicle: saline 98 % of control

CSC(=O)NC(=O)c1ccccc1
inactive: [13] 100 % of control | [14] 103 % of control | [15] 105 % of control

O=[N+]([O-])c1ccc(SC2CCC(Cl)C3CCCCC23)c([N+](=O)[O-])c1 (stereo not drawn)
inactive: endpoint: mean survival time, dose: 25.0 mg/kg/injection, schedule: Q04DX002 (ip), vehicle: saline with Tween-80 93 % of control | endpoint: mean survival time, dose: 50.0 mg/kg/injection, schedule: Q04DX002 (ip), vehicle: saline with Tween-80 90 % of control | [10] 86 % of control and 93 % of control | [12] 86 % of control

O=C(O)c1ccc(S(=O)(=O)N(Cl)Cl)cc1
inactive: [13] 109 % of control | [14] 95 % of control | [15] 95 % of control

Cc1ccc(NC(=O)c2ccc(C(=O)Nc3ccc(C)cc3)cc2)cc1
inactive: [7] 98 % of control | [13] 87 % of control | [8] 88 % of control | [14] 97 % of control | [9] 93 % of control | [15] 86 % of control

Cc1c(N)ccc(O)c1C
inactive: [4] 98 % of control | [5] 97 % of control | [6] 92 % of control

O=C(O)c1ccc(C(=O)O)c(C(=O)O)c1.[NH-]Cc1ccccc1C[NH-].[Pt+2]
inactive: endpoint: mean survival time, dose: 5.0 mg/kg/injection, schedule: Q04DX003 (ip), vehicle: sodium bicarbonate 110 % of control | endpoint: mean survival time, dose: 10.0 mg/kg/injection, schedule: Q04DX003 (ip), vehicle: sodium bicarbonate 110 % of control | endpoint: mean survival time, dose: 20.0 mg/kg/injection, schedule: Q04DX003 (ip), vehicle: sodium bicarbonate 108 % of control | endpoint: mean survival time, dose: 40.0 mg/kg/injection, schedule: Q04DX003 (ip), vehicle: sodium bicarbonate 108 % of control | endpoint: mean survival time, dose: 80.0 mg/kg/injection, schedule: Q04DX003 (ip), vehicle: sodium bicarbonate 96 % of control

Clc1ccc(Oc2ccccc2)cc1
inactive: [1] 96 % of control | [2] 86 % of control | [3] 91 % of control

CC(C)OC(=O)Nc1nc2ccccc2s1
inactive: [10] 92 % of control | [11] 95 % of control | [12] 92 % of control

Oc1ccc(I)cc1
inactive: endpoint: mean survival time, dose: 100.0 mg/kg/injection, schedule: Q01DX009 (ip), vehicle: other 96 % of control | endpoint: mean survival time, dose: 200.0 mg/kg/injection, schedule: Q01DX009 (ip), vehicle: other 103 % of control | endpoint: mean survival time, dose: 400.0 mg/kg/injection, schedule: Q01DX009 (ip), vehicle: other 111 % of control
